Data: patent US20150223456A1, “PESTICIDAL COMPOUNDS” (SYNGENTA PARTICIPATIONS AG, priority 2011, published 2015)

O=C(NCC1(c2ccc(Cl)nc2Cl)CC1)c1cccnc1Cl [A.122, 2-Chloro-N-[1-(2,6-dichloro-pyridin-3-yl)-cyclopropylmethyl]nicotinamide]
melting point: 206 to 207 °C
